Our source for the IC50 and Activity values is ChEMBL document CHEMBL3400002, “Structure-activity study for (bis)ureidopropyl- and (bis)thioureidopropyldiamine LSD1 inhibitors with 3-5-3 and 3-6-3 carbon backbone architectures” (Bioorg Med Chem, 2015).

Usually IC50 stands for the point on the concentration scale where inhibition reaches its midpoint. A high value points to lower potency.

SMILES strings stand for the structures.

Assay [1] deals with T1, Amine oxidase [flavin-containing] B (Homo sapiens, UniProt P27338).
T1 sequence (P27338 whole entry): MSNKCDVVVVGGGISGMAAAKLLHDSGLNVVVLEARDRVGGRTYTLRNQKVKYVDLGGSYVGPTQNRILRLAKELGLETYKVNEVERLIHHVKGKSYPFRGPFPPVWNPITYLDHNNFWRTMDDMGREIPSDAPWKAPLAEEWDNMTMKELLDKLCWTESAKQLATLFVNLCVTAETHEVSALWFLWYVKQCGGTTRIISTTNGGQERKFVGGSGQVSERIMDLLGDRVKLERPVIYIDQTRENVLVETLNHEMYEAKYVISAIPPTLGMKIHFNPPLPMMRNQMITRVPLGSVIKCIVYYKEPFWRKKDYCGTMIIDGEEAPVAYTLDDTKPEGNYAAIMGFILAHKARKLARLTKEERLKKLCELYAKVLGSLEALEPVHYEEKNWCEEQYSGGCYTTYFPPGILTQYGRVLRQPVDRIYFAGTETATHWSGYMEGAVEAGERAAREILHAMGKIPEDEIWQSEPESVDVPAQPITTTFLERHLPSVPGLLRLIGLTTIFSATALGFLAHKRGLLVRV
Description: Inhibition of MAO-B (unknown origin) by MAo-Glo kit analysis

The target of assay [2] is T2, Amine oxidase [flavin-containing] A (Homo sapiens, UniProt P21397).
T2 sequence (P21397 whole entry): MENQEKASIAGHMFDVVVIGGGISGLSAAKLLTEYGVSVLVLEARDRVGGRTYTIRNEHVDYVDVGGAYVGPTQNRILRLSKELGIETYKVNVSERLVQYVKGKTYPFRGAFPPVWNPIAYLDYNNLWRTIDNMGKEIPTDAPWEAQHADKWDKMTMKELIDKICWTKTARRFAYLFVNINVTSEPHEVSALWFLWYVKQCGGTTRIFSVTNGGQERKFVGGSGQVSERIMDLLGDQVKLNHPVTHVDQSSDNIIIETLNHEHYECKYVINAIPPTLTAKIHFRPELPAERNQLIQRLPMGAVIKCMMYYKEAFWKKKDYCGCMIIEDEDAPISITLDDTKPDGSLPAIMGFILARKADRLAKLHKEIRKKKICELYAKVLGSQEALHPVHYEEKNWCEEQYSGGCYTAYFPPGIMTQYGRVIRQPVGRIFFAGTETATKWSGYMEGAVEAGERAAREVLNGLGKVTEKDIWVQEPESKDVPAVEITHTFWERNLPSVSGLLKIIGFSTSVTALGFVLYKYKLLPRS
Description: Inhibition of MAO-A (unknown origin) by MAo-Glo kit analysis

For assay [3], the target named is Lysine-specific histone demethylase 1A (Homo sapiens) (UniProt O60341). Put plainly: Activation of human recombinant LSD1 at 10 uM after 30 mins to 4 hrs by fluorescence assay relative to control.

For `N=C(NCCCNCCCCCCCNCCCNC(=N)NC(=N)NCCC(c1ccccc1)c1ccccc1)NC(=N)NCCC(c1ccccc1)c1ccccc1`, the IC50 worked out at 10 µM in assay [1] and 37 µM in assay [2].
With `CCCNC(=O)NCCCNCCCCCCNCCCNC(=O)NCCC`, in assay [3], the Activity turned out to be 119%.
Still for that read-out and setting: in the case of `CCNC(=O)NCCCNCCCCCCNCCCNC(=O)NCC` it was 119%; in that of `O=C(NCCCNCCCCCCNCCCNC(=O)NCc1ccccc1)NCc1ccccc1`, 110%; in that of `O=C(NCCCNCCCCCNCCCNC(=O)Nc1ccccc1)Nc1ccccc1`, 163%.
